Measurements from patent publication US20240131098A1, “PHARMACEUTICAL COMPOSITION AND HEALTH FUNCTIONAL FOOD CONTAINING EXTRACT OF FRUITING BODY OF GANODERMA LUCIDUM AS ACTIVE INGREDIENT FOR PREVENTION OR TREATMENT OF THROMBOSIS” (Andong National University Industry-Academic Cooperation …, priority 2022, published 2024).

How the values were obtained:
blood coagulation factor = test: aPTT (activated partial thromboplastin time), blood coagulation factor inhibitory activity; type: biochemical; settings: 1.5 mg/ml; coagulation time of sample added group / DMSO added group
Method: (§1) The blood coagulation inhibitory activity of Ganoderma lucidum fruiting body samples was evaluated according to the previously reported methods (Sohn et al., 2004. Kor. J. Pharmacogn 35. 52-61; Kwon et al., 2004. J Life Science, 14. 509-513; Ryu et al. 2010. J. Life Science, 20. 922-928). For this, thrombin time, prothrombin time and aPT time were measured. For plasma, commercially available control plasma (MD Pacific Technology Co., Ltd, Huayuan Industrial Area, China) was used, and thrombin time, prothrombin time, and aPT time measurements were performed in a manner described below.
aPTT (Activated Partial Thromboplastin Time)
100 μl of plasma and 10 μl of sample extracts of various concentrations were added to the tube of Amelung coagulometer KC-1A (Japan) and warmed at 37° C. for 3 minutes. 50 μl of aPTT reagent (Sigma, ALEXIN™) was added thereto and incubated at 37° C. for 3 minutes. 50 μl of CaCl2 (35 mM) was added, and the time until plasma coagulation was measured. As a solvent control, DMSO was used instead of the sample, and in this case, the coagulation time was 55.1 seconds. The aPTT was expressed with the average of the results of three or more repeated experiments, and the blood coagulation factor inhibitory activity was expressed as the value obtained by dividing the aPTT upon addition of the same by the aPTT time upon addition of the solvent control. […]

thrombin = target: T1, thrombin (Homo sapiens, UniProt P00734); test: Thrombin time (plasma coagulation, thrombin inhibitory activity); type: biochemical; settings: 1.5 mg/ml; coagulation time of sample added group / DMSO added group
T1 construct: 50 μl of 0.5 U thrombin (Sigma Co., USA); purchased Sigma Co., USA
Method: as §1
At 37° C., 50 μl of 0.5 U thrombin (Sigma Co., USA), 50 μl of 20 mM CaCl2, and 10 μl of sample extracts of various concentrations were mixed in the tube of Amelung coagulometer KC-1 A (Japan), and reacted for 2 minutes, followed by addition of 100 μl of plasma. After the addition of plasma, the time until plasma coagulation was measured. As a control, aspirin (Sigma Co., USA) was used, and as a solvent control, DMSO was used instead of the sample. […]
The thrombin inhibitory activity was expressed with the average of the results of three or more repeated experiments, and the thrombin inhibitory activity was expressed as the value obtained by dividing the coagulation time upon addition of the sample by the coagulation time upon addition of the solvent control. […]

prothrombin = test: Prothrombin time (plasma coagulation, prothrombin inhibitory activity); type: biochemical; settings: 1.5 mg/ml; coagulation time of sample added group / DMSO added group
Method: as §1
70 μl of standard plasma (MD Pacific Co., China) and 10 μl of sample solutions of various concentrations were added to the tube of Amelung coagulometer KC-1A (Japan) and warmed at 37° C. for 3 minutes, followed by addition of 130 μl of PT reagent. After the addition of the PT reagent, the time until coagulation was measured. The time was expressed with the average value of the results of three repeated experiments. As a control, aspirin (Sigma Co., USA) was used, and as a solvent control, DMSO was used instead of the sample. In the case of DMSO, the coagulation time was 18.1 seconds. The prothrombin inhibitory activity was expressed as the value obtained by dividing the coagulation time upon addition of the sample by the coagulation time of the solvent control. […]

human erythrocytes = tested on: human erythrocytes
Method: The hemolytic activity was evaluated according to the previous report (Son Ho-yong, 2014. Korean J. Microbiol. Biotechnol. 42: 285-292). Briefly, 100 μl of human red blood cells washed three times with PBS were placed in a 96-well microplate, 100 μl of sample solution of various concentrations was added thereto, the reaction was performed at 37° C. for 30 minutes, and the reaction solution was centrifuged at 1,500 rpm for 10 minutes, 100 μl of the supernatant was transferred to a new microtiter plate, and the degree of hemoglobin leakage due to hemolysis was measured at 414 nm. DMSO (2%) was used as a solvent control for the sample, and Triton X-100 (1 mg/ml) was used as a control for red blood cell hemolysis. Hemolytic activity was calculated using the following formula:
(%)Hemolysis=[(Abs.S−Abs.C)/(Abs.T−Abs.C)]×100 • Abs.S: Absorbance of sample added group • Abs.C: Absorbance of DMSO added group • Abs.T: Absorbance of Triton X-100 added group

Compound | Blood coagulation inhibitory activity, aPT time (blood coagulation factor) | Blood coagulation inhibitory activity, Thrombin time (thrombin) | Blood coagulation inhibitory activity, Prothrombin time (prothrombin) | Human erythrocyte coagulation activity(%) (human erythrocytes)
CC(=O)Oc1ccccc1C(=O)O [Aspirin, aspirin] | 1.57 ± 0.11 | 1.45 ± 0.02 | 1.40 ± 0.00 | 
Triton X-100 |  |  |  | 0.4 ± 0.6%
